≈ marks a conversion by molar mass, not a printed value.
Experiments:
[1] = test system: Tacaribe virus (TCRV, TRVL-11573); parameters: SI50 (SI): unit not given beside the values
[2] = test system: Epstein-Barr virus (EBV), Akata strain; parameters: SI50 / SI90: unit not given beside the values
[3] = test system: enterovirus-68 (EV-68, US/DY/14-18953); conditions: for SI50 (SI): EV-68, SI = CC50/EC50
[4] = test system: SARS-CoV-2 (USA-WA1/2020); conditions: for SI50 (SI): SARS-CoV-2, SI = CC50/EC50
[5] = test system: respiratory syncytial virus (RSV, A2); conditions: for SI50 (SI): RSV, SI = CC50/EC50
[6] = test system: Influenza B/Florida/4/2006 (Yamagata); conditions: for SI50 (SI): Influenza B, SI = CC50/EC50
[7] = test system: BK virus (BKV), Gardner strain; parameters: SI50 / SI90: unit not given beside the values
[8] = test system: influenza/California/07/2009 (H1N1)pdm09; conditions: for SI50 (SI): Influenza(H1N1), SI = CC50/EC50
[9] = test system: dengue virus-2 (DENV-2, New Guinea C); conditions: SI = CC50/EC50
MERS-CoV (EMC) = assay type: cell-based; conditions: SI = CC50/EC50
[10] = test system: Human cytomegalovirus (HCMV), strain AD169; conditions: for EC50 / EC90: drug concentration 0.048-150 μM
in vitro [11] = conditions: male, SD, rat, plasma
[12] = target: T1, SARS-Cov2 RdRp (nsp12-nsp7-nsp8) (Severe acute respiratory syndrome coronavirus 2, UniProt P0DTD1); assay type: biochemical; conditions: primer extension; analog at 100 uM, printed 100 mM
in vitro [13] = conditions: both, human, plasma
[14] = test system: Rift Valley fever virus (RVFV)
[15] = target: T1, SARS-Cov2 RdRp (nsp12-nsp7-nsp8); assay type: biochemical; conditions: after addition of GTP and CTP (third and fourth nucleotides)
HCMV AD169 = experiment: HCMV plaque reduction assay, MRC-5 cells, strain AD169; assay type: cell-based, Human cytomegalovirus; conditions: hCMV AD169, MRC5 cells, plaque assay, 6-days duration

SMILES: CC(C)(C)C(=O)SCCOP(=O)(OCCSC(=O)C(C)(C)C)OCC1=CC(O)C(n2ccc(N)nc2=O)O1 (centres unmarked) [SATE-ddhC]
- CC50 [1]: 210 µM
- SI50 (SI) [1]: 0
- Activity [2]: MOD (key: NA (Not Active) SI50 = 0-3.9; MOD (Moderately Active) SI50 = 4-9.9; HI (Highly Active) SI50 = ≥10)
- CC50 [2]: 124 µM
- EC50 [2]: 18.8 µM
- EC90 [2]: > 30 µM
- SI50 [2]: 7
- SI90 [2]: <4
- activity against EBV (in words) [2]: moderately active
- CC50 [3]: > 100 µM
- SI50 (SI) [3]: 0
- CC50 [4]: 410 µM
- SI50 (SI) [4]: 0
- CC50 [5]: 540 µM
- SI50 (SI) [5]: 0
- CC50 [6]: > 1000 µM
- SI50 (SI) [6]: 0
- Activity [7]: NA (key: NA (Not Active) SI50 = 0-3.9; MOD (Moderately Active) SI50 = 4-9.9; HI (Highly Active) SI50 = ≥10)
- CC50 [7]: > 150 µM
- EC50 [7]: 96 µM
- EC90 [7]: > 150 µM
- SI50 [7]: >2
- SI90 [7]: 1
- CC50 [8]: 550 µM
- SI50 (SI) [8]: 0
- SI50 (SI) [9]: 0
- SI50 (SI) (MERS-CoV (EMC)): 0

SMILES: CC(C)(C)C(=O)SCCOP(=O)(OCCSC(=O)C(C)(C)C)OCC1=CC(O)C(n2cnc3c(=O)[nH]c(N)nc32)O1 (centres unmarked) [SATE-ddhG]
- CC50 [1]: 610 µM
- SI50 (SI) [1]: 0
- Activity [2]: HI (key: NA (Not Active) SI50 = 0-3.9; MOD (Moderately Active) SI50 = 4-9.9; HI (Highly Active) SI50 = ≥10)
- CC50 [2]: 106 µM
- EC50 [2]: 2.98 µM
- EC90 [2]: > 30 µM
- SI50 [2]: 35
- SI90 [2]: <4
- activity against EBV (in words) [2]: highly active
- CC50 [3]: 83 µM
- SI50 (SI) [3]: 0
- CC50 [4]: > 1000 µM
- SI50 (SI) [4]: 0
- CC50 [5]: > 1000 µM
- SI50 (SI) [5]: 0
- CC50 [6]: > 1000 µM
- SI50 (SI) [6]: 0
- Activity [7]: HI (key: NA (Not Active) SI50 = 0-3.9; LO (Slightly Active) SI50 = 4-9.9; MOD (Moderately Active) SI50 = 10-19.9; HI (Highly Active) SI50 = ≥20)
- CC50 [7]: > 150 µM
- EC50 [7]: 5.32 µM
- EC90 [7]: 5.86 µM
- SI50 [7]: >28
- SI90 [7]: >26
- activity against BK virus (in words) [7]: highly active
- CC50 [8]: > 1000 µM
- SI50 (SI) [8]: 0
- SI50 (SI) [9]: 0
- SI50 (SI) (MERS-CoV (EMC)): 0

SMILES: C[C@H](Cn1cnc2c(N)ncnc21)OCP(=O)(O)O [TNV, reference compound]
- CC50 (JC virus (JCV)): > 150 µM
- EC50 (JC virus (JCV)): > 150 µM
- EC90 (JC virus (JCV)): > 150 µM
- CC50 [10]: > 150 µM
- EC50 [10]: > 150 µM
- EC90 [10]: > 150 µM
- CC50 [2]: > 150 µM
- EC50 [2]: 45.8 µM
- EC90 [2]: > 150 µM
- SI50 [2]: >3
- SI90 [2]: 1
- CC50 [7]: > 150 µM
- EC90 [7]: > 150 µM
- SI90 [7]: 1

SMILES: COc1ccc([C@@H]2Sc3ccccc3N(CCN(C)C)C(=O)[C@@H]2OC(C)=O)cc1 [Diltiazem]
- half-life at 0.75 µM (in vitro [11]): 2.08 h

SMILES: O=c1ccn([C@@H]2O[C@H](COP(=O)(O)OP(=O)(O)OP(=O)(O)O)C[C@H]2O)c(=O)[nH]1 [3′-dUTP, 3′-deoxyuracil triphosphate, reference compound]
- incorporation into RNA by SARS-Cov2 RdRp (in words) [12]: same level of incorporation as ddhUTP

SMILES: Nc1ccn([C@@H]2OC(CO)=C[C@H]2O)c(=O)n1 [ddhC, ddh cytidine]
- activity against enterovirus EV-68 (in words) (enterovirus-68 (EV-68)): exhibits some activity

SMILES: CC(C)[N+](C)(CCOC(=O)C1c2ccccc2Oc2ccccc21)C(C)C [Propantheline]
- half-life at 0.75 µM (in vitro [13]): 0.28 h

SMILES: Nc1ccn([C@H]2CC[C@@H](CO)O2)c(=O)n1 [2-3 Dideoxycytidine]
- CC50 (adenovirus-5 (Ad5)): >100 µg/mL
- EQ50 (adenovirus-5 (Ad5)): 1.8 µg/mL
- SI (adenovirus-5 (Ad5)): >56

SMILES: NC(=O)c1ncn([C@@H]2O[C@H](CO)[C@@H](O)[C@H]2O)n1 [Ribavirin, Ribavirin (Virazole), reference compound]
- CC50 [1]: > 1000 µg/mL
- SI50 (SI) [1]: >190
- CC50 (Influenza B): >1000 µg/mL
- EQ50 (Influenza B): 1.4 µg/mL
- SI (Influenza B): >710
- CC50 (TCRV): 820 µg/mL (≈ 3.36 mM)
- EQ50 (TCRV): 13 µg/mL
- SI (TCRV): 63
- CC50 (influenza A(H1N1)): >1000 µg/mL
- EQ50 (influenza A(H1N1)): 4.6 µg/mL
- SI (influenza A(H1N1)): >220
- CC50 [5]: 310 µg/mL
- SI50 (SI) [5]: 16
- CC50 [6]: > 1000 µg/mL
- SI50 (SI) [6]: >130
- SI (influenza A(H5N1)): >560
- CC50 (influenza A(H5N1); MDCK cells without virus, positive control): >1000 µg/mL
- EQ50 (influenza A(H5N1); influenza A(H5N1), MDCK cells, positive control): 1.8 µg/mL
- CC50 [8]: > 1000 µg/mL
- SI50 (SI) [8]: >130
- SI [14]: 62
- EQ50 ([14]; RVFV, Vero 76 cells, positive control): 14 µg/mL
- CC50 ([14]; Vero 76 cells without virus, positive control): 870 µg/mL (≈ 3.56 mM)
- CC50 (RSV): 42 µg/mL (≈ 0.172 mM)
- EQ50 (RSV): 7.3 µg/mL
- SI (RSV): 5.8

SMILES: N#C[C@@]1(c2ccc3c(N)ncnn23)O[C@H](COP(=O)(O)OP(=O)(O)OP(=O)(O)O)[C@@H](O)[C@H]1O [REM-TP, Remdesivir-TP, reference compound]
- incorporation into RNA by SARS-Cov2 RdRp (in words) [12]: incorporated into RNA as ATP analogs
- chain termination of RNA synthesis (in words) [15]: did not cause chain termination

SMILES: Nc1nc2c(ncn2COC(CO)CO)c(=O)[nH]1 [GCV]
- CC50 [10]: > 150 µM
- EC50 [10]: 0.19 µM
- EC90 [10]: > 150 µM

SMILES: C#C[C@@]1(O)[C@H](O)[C@@H](CO)O[C@H]1n1ccc2c(N)ncnc21 [NITD008, reference compound]
- CC50 (Zika virus): 44 µg/mL (≈ 0.152 mM)
- EQ50 (Zika virus): 1.8 µg/mL
- SI (Zika virus): 24

SMILES: CC(C)(C)C(=O)SCCOP(=O)(OCCSC(=O)C(C)(C)C)OCC1=CC(O)C(n2cnc3c(=O)[nH]cnc32)O1 (centres unmarked) [SATE-ddhI]
- CC50 [1]: 900 µM
- SI50 (SI) [1]: 0
- Activity [2]: MOD (key: NA (Not Active) SI50 = 0-3.9; MOD (Moderately Active) SI50 = 4-9.9; HI (Highly Active) SI50 = ≥10)
- CC50 [2]: > 150 µM
- EC50 [2]: 18.8 µM
- EC90 [2]: 81.9 µM
- SI50 [2]: >8
- SI90 [2]: >2
- activity against EBV (in words) [2]: moderately active
- CC50 [3]: > 100 µM
- SI50 (SI) [3]: 0
- CC50 [4]: 530 µM
- SI50 (SI) [4]: 0
- CC50 [5]: > 1000 µM
- SI50 (SI) [5]: 0
- CC50 [6]: > 1000 µM
- SI50 (SI) [6]: 0
- Activity [7]: NA (key: NA (Not Active) SI50 = 0-3.9; MOD (Moderately Active) SI50 = 4-9.9; HI (Highly Active) SI50 = ≥10)
- CC50 [7]: > 150 µM
- EC50 [7]: 115 µM
- EC90 [7]: > 150 µM
- SI50 [7]: >1
- SI90 [7]: 1
- CC50 [8]: > 1000 µM
- SI50 (SI) [8]: 0
- SI50 (SI) [9]: 0
- SI50 (SI) (MERS-CoV (EMC)): 0

SMILES: CC(C)(C)C(=O)SCCOP(=O)(OCCSC(=O)C(C)(C)C)OCC1=CC(O)C(n2cnc3c(N)ncnc32)O1 (centres unmarked) [SATE-ddhA]
- CC50 [1]: 58 µM
- SI50 (SI) [1]: 0
- Activity [2]: MOD (key: NA (Not Active) SI50 = 0-3.9; MOD (Moderately Active) SI50 = 4-9.9; HI (Highly Active) SI50 = ≥10)
- CC50 [2]: 55.8 µM
- EC50 [2]: 12.9 µM
- EC90 [2]: 26.8 µM
- SI50 [2]: 4
- SI90 [2]: 2
- activity against EBV (in words) [2]: moderately active
- CC50 [3]: 2 µM
- SI50 (SI) [3]: 0
- CC50 [4]: 49 µM
- SI50 (SI) [4]: 0
- CC50 [5]: 170 µM
- SI50 (SI) [5]: 0
- CC50 [6]: 180 µM
- SI50 (SI) [6]: 0
- Activity [7]: NA (key: NA (Not Active) SI50 = 0-3.9; MOD (Moderately Active) SI50 = 4-9.9; HI (Highly Active) SI50 = ≥10)
- CC50 [7]: 89.7 µM
- EC50 [7]: > 30 µM
- EC90 [7]: > 30 µM
- SI50 [7]: <3
- SI90 [7]: <3
- CC50 [8]: 180 µM
- SI50 (SI) [8]: 0
- SI50 (SI) [9]: 0
- SI50 (SI) (MERS-CoV (EMC)): 0

SMILES: N#C[C@@]1(c2ccc3c(N)ncnn23)OC(COP(=O)(O)OP(=O)(O)OP(=O)(O)O)=C[C@H]1O [ddhREM-TP, ddhRemdesivir]
- incorporation into RNA by SARS-Cov2 RdRp (in words) [12]: incorporated into RNA as ATP analogs
- chain termination of RNA synthesis (in words) [15]: caused termination of RNA synthesis

SMILES: Nc1nc2c(ncn2COC(CO)CO)c(=O)[nH]1 [Ganciclovir, reference compound]
- EC50 (HCMV AD169): 7.36 µM
